The text below walks through data of BindingDB's records for doi:10.1021/jm00077a015 (Universität Regensburg, 1994).

In general, IC50 refers to the concentration at which inhibition is half-maximal.

Molecules are shown by their SMILES.

This assay deals with lipid peroxidation in brain phospholipid liposomes (Bos taurus). Briefly: Tested for the inhibition of lipid peroxidation in bovine brain phospholipid liposomes.

For `O=C1c2c(O)cccc2C(=Cc2cc(O)c(O)c(O)c2)c2cccc(O)c21` [1,8-Dihydroxy-10-(3,4,5-trihydroxy-benzylidene)-10H-anthracen-9-one], the IC50 came to 2 µM.

`O=C1c2c(O)cccc2C(=Cc2ccc(O)cc2)c2cccc(O)c21` [1,8-Dihydroxy-10-(4-hydroxy-benzylidene)-10H-anthracen-9-one] displayed an IC50 of 8 µM.

`O=C1c2c(O)cccc2C(=Cc2ccc([N+](=O)[O-])cc2)c2cccc(O)c21` [1,8-dihydroxy-10-(4-nitrobenzylidene)anthracen-9(10H)-one] registered an IC50 of 14 µM. This IC50 is about 1.8-fold higher than that of the compound before.

In turn, `O=C1c2c(O)cccc2C(=Cc2ccc(O)c(O)c2)c2cccc(O)c21` [10-(3,4-dihydroxybenzylidene)-1,8-dihydroxyanthracen-9(10H)-one] showed a half-maximal inhibitory concentration (IC50) of 2 µM.

In turn, `CCCC(=O)C1c2cccc(O)c2C(=O)c2c(O)cccc21` [10-Butyryl-1,8-dihydroxy-10H-anthracen-9-one(Butantrone)] returned an IC50 of 4 µM.

On to `O=C1c2c(O)cccc2C(C(=O)Cc2ccc(O)c(O)c2)c2cccc(O)c21` [10-[2-(3,4-Dihydroxy-phenyl)-acetyl]-1,8-dihydroxy-10H-anthracen-9-one], for which the IC50 was 1 µM.

In turn, `O=C1c2c(O)cccc2C(=Cc2ccccc2)c2cccc(O)c21` [10-benzylidene-1,8-dihydroxyanthracen-9(10H)-one] showed an IC50 of 8 µM.
